Patent US20230039887A1, “COMPOSITIONS FOR TOPICAL TREATMENT OF RADIATION DERMATITIS” (priority 2021, published 2023)

Tests used:
Assay type in all cases: cell-based
MT1F = experiment: qPCR gene expression in tissues treated topically, MT1F; conditions: topical, without radiation exposure
Experimental: (§1) Next, changes in gene expression were measured in tissues treated topically with the formulations (without radiation exposure) using qPCR. This provides evidence that the CBD is being absorbed by the tissues. Five genes were examined: APOB, CSF2, IL24, MT1F, and MT1G.
(§2) Statistical significance was determined using unpaired t-test, P<0.05, N=3, and are indicated in bold. The results are provided in Table B in both linear fold change values (FC) and in percent change. It is noted that changes in gene expression in general were only seen in the treatments where CBD was used.

cells = experiment: MTT assay of cell viability after 24 hours topical application; set-up: cell viability: dose or concentration left out as unconfirmed
Experimental: Test materials were applied topically for 24 hours and an MTT assay was used to check the viability of cells.
The relative results are provided in the following Table A, with the untreated group defining 100% viability, and shown in FIG. 1. * indicates p≤0.05 and ** indicates p≤0.01 statistical significance after performing unpaired t-test.

MT1G = experiment: qPCR gene expression in tissues treated topically, MT1G; conditions: topical, without radiation exposure
Experimental: as §1, §2

CSF2 = experiment: qPCR gene expression in tissues treated topically, CSF2; conditions: topical, without radiation exposure
Experimental: (§3) Next, changes in gene expression were measured in tissues treated topically with the formulations (without radiation exposure) using qPCR. […] Five genes were examined: APOB, CSF2, IL24, MT1F, and MT1G.
(§4) Statistical significance was determined using unpaired t-test, P<0.05, N=3, and are indicated in bold. The results are provided in Table B in both linear fold change values (FC) and in percent change.

APOB = experiment: qPCR gene expression in tissues treated topically, APOB; conditions: topical, without radiation exposure
Experimental: as §3, §4

IL24 = experiment: qPCR gene expression in tissues treated topically, IL24; conditions: topical, without radiation exposure
Experimental: as §1, §2

C=C(C)[C@@H]1CCC(C)=C[C@H]1c1c(O)cc(CCCCC)cc1O [CBD, 2-[(1R,6R)-6-Isopropenyl-3-methylcyclohex-2-en-1-yl]-5-pentylbenzene-1,3-diol]
MT1F gene expression, % Δ (percent change) (MT1F; 1 mg/mL CBD): 147%
MT1F gene expression, % Δ (percent change) (MT1F; 10 mg/mL CBD): 40%
MT1F gene expression, % Δ (percent change) (MT1F; 30 mg/mL CBD): −65%
MT1F gene expression, % Δ (percent change) (MT1F; 60 mg/mL CBD): 134%
MT1F gene expression, % Δ (percent change) (MT1F; 120 mg/mL CBD): 602%
MT1F gene expression, % Δ (percent change) (MT1F; 250 mg/mL CBD): 2163%
MT1F gene expression, % Δ (percent change) (MT1F; 500 mg/mL CBD): 3963%
MT1F gene expression, % Δ (percent change) (MT1F; 750 mg/mL CBD): 2971%
cell viability (cells): significant increase
MT1G gene expression, % Δ (percent change) (MT1G; 1 mg/mL CBD): −41%
MT1G gene expression, % Δ (percent change) (MT1G; 10 mg/mL CBD): −4%
MT1G gene expression, % Δ (percent change) (MT1G; 30 mg/mL CBD): 92%
MT1G gene expression, % Δ (percent change) (MT1G; 60 mg/mL CBD): 2526%
MT1G gene expression, % Δ (percent change) (MT1G; 120 mg/mL CBD): 5186%
MT1G gene expression, % Δ (percent change) (MT1G; 250 mg/mL CBD): 13439%
MT1G gene expression, % Δ (percent change) (MT1G; 500 mg/mL CBD): 33439%
MT1G gene expression, % Δ (percent change) (MT1G; 750 mg/mL CBD): 23223%
CSF2 gene expression, % Δ (percent change) (CSF2; 1 mg/mL CBD): 117%
CSF2 gene expression, % Δ (percent change) (CSF2; 10 mg/mL CBD): 118%
CSF2 gene expression, % Δ (percent change) (CSF2; 30 mg/mL CBD): −19%
CSF2 gene expression, % Δ (percent change) (CSF2; 60 mg/mL CBD): 186%
CSF2 gene expression, % Δ (percent change) (CSF2; 120 mg/mL CBD): 448%
CSF2 gene expression, % Δ (percent change) (CSF2; 250 mg/mL CBD): 763%
CSF2 gene expression, % Δ (percent change) (CSF2; 500 mg/mL CBD): −30%
CSF2 gene expression, % Δ (percent change) (CSF2; 750 mg/mL CBD): 93%
APOB gene expression, % Δ (percent change) (APOB; 1 mg/mL CBD): 23%
APOB gene expression, FC (linear fold change) (APOB; 1 mg/mL CBD): 1.23
APOB gene expression, % Δ (percent change) (APOB; 10 mg/mL CBD): 0%
APOB gene expression, FC (linear fold change) (APOB; 10 mg/mL CBD): 1.00
APOB gene expression, % Δ (percent change) (APOB; 30 mg/mL CBD): −16%
APOB gene expression, FC (linear fold change) (APOB; 30 mg/mL CBD): −1.19
APOB gene expression, % Δ (percent change) (APOB; 60 mg/mL CBD): 51%
APOB gene expression, % Δ (percent change) (APOB; 120 mg/mL CBD): −9%
APOB gene expression, FC (linear fold change) (APOB; 120 mg/mL CBD): −1.10
APOB gene expression, % Δ (percent change) (APOB; 250 mg/mL CBD): −60%
APOB gene expression, FC (linear fold change) (APOB; 250 mg/mL CBD): −2.48
APOB gene expression, % Δ (percent change) (APOB; 500 mg/mL CBD): −96%
APOB gene expression, FC (linear fold change) (APOB; 500 mg/mL CBD): −22.22
APOB gene expression, % Δ (percent change) (APOB; 750 mg/mL CBD): −96%
APOB gene expression, FC (linear fold change) (APOB; 750 mg/mL CBD): −25.64
IL24 gene expression, % Δ (percent change) (IL24; 1 mg/mL CBD): 55%
IL24 gene expression, % Δ (percent change) (IL24; 10 mg/mL CBD): 48%
IL24 gene expression, % Δ (percent change) (IL24; 30 mg/mL CBD): −70%
IL24 gene expression, % Δ (percent change) (IL24; 60 mg/mL CBD): −11%
IL24 gene expression, % Δ (percent change) (IL24; 120 mg/mL CBD): 63%
IL24 gene expression, % Δ (percent change) (IL24; 250 mg/mL CBD): 59%
IL24 gene expression, % Δ (percent change) (IL24; 500 mg/mL CBD): −6%
IL24 gene expression, % Δ (percent change) (IL24; 750 mg/mL CBD): 54%

Triton-X
Relative Viability (cells; positive control, topical 24 hours, untreated = 100%): 3%
